Results on 2 compounds are retold here after patent publication US9556205B2, “Fungicide N-[(trisubstitutedsilyl)methyl]-carboxamide derivatives” (BAYER INTELLECTUAL PROPERTY GMBH, priority 2010, dated 2017).

As a reminder, the logP is a log measure of how a compound divides between an organic and an aqueous phase.

Structures are written as SMILES.

Series [1] relates to Puccinia recondita. In words: In vivo test on Puccinia recondita (wheat brown rust), Example I. Conditions: wheat (Scipion variety), 500 ppm of active ingredient, grading 10 days after contamination.
Series [2] in a line: log P by HPLC on reversed-phase column (C18), EEC Directive 79/831 Annex V.A8. Type of series: physicochemical. Conditions: 40° C., 0.1% aqueous formic acid and acetonitrile, linear gradient 10% to 90% acetonitrile.
Another series relates to Pyrenophora teres. In words: In vivo preventive test on Pyrenophora teres (barley), Example F.
The next series has as its system Alternaria solani. In words: In vivo preventive test on Alternaria solani (tomato).
Series [3] has as its system Puccinia recondita. In words: In vivo preventive test on Puccinia recondita (wheat), Example H. To be noted: 500 ppm, evaluated 7-9 days after inoculation. The protocol:
Solvent: 49 parts by weight of N,N-dimethylacetamide Emulsifier: 1 part by weight of alkylaryl polyglycol ether To produce a suitable preparation of active compound, 1 part by weight of active compound is mixed with the stated amounts of solvent and emulsifier, and the concentrate is diluted with water to the desired concentration. To test for preventive activity, young plants are sprayed with the preparation of active compound at the stated rate of application. One day after this treatment, the plants are inoculated with an aqueous spore suspension of Puccinia recondita. […] Then the plants are placed in a greenhouse at a temperature of approximately 20° C. and a relative atmospheric humidity of approximately 80%.

Where [4] appears, read: 500 ppm, comparison with prior-art compound.

Take `CCc1nn(C)c(F)c1C(=O)N(C[Si](C)(C)c1ccccc1)C1CC1` [Example 7]: in the series on Puccinia recondita [1], the protection result is given as “at least 70%”. For the same compound, the log partition coefficient (logP) in series [2] is 3.64.
Regarding `Cc1cc(C(=O)N(C[Si](C)(C)c2ccccc2)C2CCCCC2)c(C)o1` [Example 12], the Efficacy in the series on Pyrenophora teres (500 ppm of active ingredient, evaluated 7-9 days after inoculation) amounted to 70%; in the series on Alternaria solani (500 ppm of active ingredient, evaluated 7 days after inoculation) it was 80%. Further, the disease control turned out to be 70% with Pyrenophora teres (setting [4]), 80% in the series on Alternaria solani (setting [4]) and 40% in the series on Puccinia recondita [3]. Besides, the logP in series [2] is on record as 5.62.
